Measurements published in patent US20130204033A1, “ANTIPROLIFERATIVE COMPOUNDS, CONJUGATES THEREOF, METHODS THEREFOR, AND USES THEREOF” (Medarex, Inc., priority 2009, published 2013).
Where two headings read alike, the source gives them in different places.

Columns and labels:
Assay type in all cases: cell-based, human
HCT-15 [1] = assay: 3H thymidine proliferation assay, HCT-15; settings: Homo sapiens
Description: (§1) This example generally describes the procedures used to assay the antiproliferative activity of compounds of this invention or their conjugates. Human tumor cell lines were obtained from the American Type Culture Collection (ATCC), P.O. Box 1549, Manassas, Va. 20108, USA, and cultured according to instruction from the ATCC. Cells were seeded at 1.0×10^3 or 1.0×10^4 cells/well in 96-well plates for 3 h for ATP assays or ^3H thymidine assays, respectively. 1:3 serial dilutions of free (unconjugated) compounds or their conjugates were added to the wells. Plates were allowed to incubate for 24 to 72 h. The ^3H thymidine plates were pulsed with 1.0 μCi of ^3H-thymidine per well for the last 24 hours of the total incubation period, harvested, and read on a Top Count Scintillation Counter (Packard Instruments, Meriden, Conn.). ATP levels in the ATP plates were measured using the […]-GLO® Luminescent Cell Viability kit following the manufacturer's manual and read on a GLOMAX® 20/20 luminometer (both from Promega, Madison, Wis., USA). The EC50 values—the concentration at which an agent inhibits or reduces cell proliferation by 50% —were determined using PRISM™ software, version 4.0 (GraphPad Software, La Jolla, Calif., USA).
(§2) Using the ^3H thymidine or the ATP luminescence assay, or both, the activities of compounds of this invention were assayed against the following cancer cell lines: HCT-15 (colorectal cancer, multi-drug resistant (MDR)); Hep3B (liver cancer); LNCaP (prostate cancer, androgen receptor positive (AR^+)); MDA-MB-231 (breast cancer, estrogen receptor, progesterone receptor, and Her2 negative (triple negative)); A2058 (melanoma); U-87 MG (glioblastoma); NCI-H460 (NSCLC); A549 (NSCLC); HPAC (pancreatic cancer, primary); PC3 (prostate cancer, AR); BT474 (breast cancer, Her2 highly positive (Her2hi)); SKOV3 (ovarian cancer, Her2hi); 786-O (renal cancer); UO-31 (renal cancer, MDR); NCI-H740 (SCLC); DMS53 (SCLC); SK-BR3 (breast cancer, Her2hi); ZR-75 (breast cancer, estrogen receptor positive); OVCAR3 (ovarian cancer); HL-60 (APL); OVCAR8/Adr (ovarian cancer, MDR); CEM-Cl (ALL); Nomo-1 (AML); RPMI-8226 (MM)); Raji (lymphoma); SW-480 (colorectal cancer, metastatic); SW-620 (colorectal cancer); and H226 (lung cancer). (Not all compounds were assayed against all cell lines.)
(§3) Table 2 provides the data for proliferation assays using the ^3H thymidine method, with an incubation period of 72 h.

MDA-MB-231 = assay: 3H thymidine proliferation assay, MDA-MB-231; settings: Homo sapiens
Description: as §1, §2, §3

HPAC [2] = assay: 3H thymidine proliferation assay, HPAC; settings: Homo sapiens, HPAC
Description: as §1, §2, §3

BT474 = assay: 3H thymidine proliferation assay, BT474; settings: Homo sapiens
Description: as §1, §2, §3

SKOV3 = assay: 3H thymidine proliferation assay, SKOV3; settings: Homo sapiens
Description: as §1, §2, §3

786-O [3] = assay: 3H thymidine proliferation assay, 786-O; settings: Homo sapiens
Description: as §1, §2, §3

OVCAR3 [4] = assay: 3H thymidine proliferation assay, OVCAR3; settings: Homo sapiens
Description: as §1, §2, §3

OVCAR8 = assay: 3H thymidine proliferation assay, OVCAR8; settings: Homo sapiens
Description: as §1, §2, §3

RPMI-8226 = assay: 3H thymidine proliferation assay, RPMI-8226; settings: Homo sapiens
Description: as §1, §2, §3

HCT-15 [5] = assay: ATP luminescence proliferation assay, HCT-15; settings: Homo sapiens
Description: as §1, §2
(§4) Table 3 provides the data for the ATP luminescence proliferation assays, with an incubation period of 48, 72, or 96 h, as noted.

Hep3B = assay: ATP luminescence proliferation assay, Hep3B; settings: Homo sapiens
Description: as §1, §2, §4

NCI-H460 = assay: ATP luminescence proliferation assay, NCI-H460; settings: Homo sapiens
Description: as §1, §2, §4

HPAC [6] = assay: ATP luminescence proliferation assay, HPAC; settings: Homo sapiens
Description: as §1, §2, §4

786-O [7] = assay: ATP luminescence proliferation assay, 786-O; settings: Homo sapiens
Procedure, shortened: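 Cells seeded at 1.0×10^3 cells/well for 3 h, then exposed to 1:3 serial dilutions of free compounds or conjugates for 48, 72 or 96 h, as noted. ATP measured by luminescent cell viability kit; EC50 taken as concentration reducing proliferation by 50%.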

OVCAR3 [8] = assay: ATP luminescence proliferation assay, OVCAR3; settings: Homo sapiens
Procedure, shortened: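 Antiproliferative EC50 values derive from luminescent ATP measurement in human tumor cells exposed for 48, 72 or 96 h to 1:3 serial dilutions of free compounds or their conjugates, with 1.0×10^3 cells seeded per well 3 h beforehand.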

Nomo-1 = assay: ATP luminescence proliferation assay, Nomo-1; settings: Homo sapiens
Description: as §1, §2, §4

Raji = assay: ATP luminescence proliferation assay, Raji; settings: Homo sapiens
Description: as §1, §2, §4

SW-620 = assay: ATP luminescence proliferation assay, SW-620; settings: Homo sapiens
Description: as §1, §2, §4

[9] = HCT-15, read-out: EC50, HCT-15, 3H thymidine method, 72 h incubation
[10] = MDA-MB-231, read-out: EC50, MDA-MB-231, 3H thymidine method, 72 h incubation
[11] = read-out: EC50, HPAC, 3H thymidine method, 72 h incubation
[12] = BT-474, read-out: EC50, BT474, 3H thymidine method, 72 h incubation
[13] = SK-OV-3, read-out: EC50, SKOV3, 3H thymidine method, 72 h incubation
[14] = 786-0, read-out: EC50, 786-O, 3H thymidine method, 72 h incubation
[15] = OVCAR-3, read-out: EC50, OVCAR3, 3H thymidine method, 72 h incubation
[16] = OVCAR-8, read-out: EC50, OVCAR8, 3H thymidine method, 72 h incubation
[17] = RPMI-8226, read-out: EC50, RPMI-8226, 3H thymidine method, 72 h incubation
[18] = HCT-15, 72 h, read-out: EC50 HCT-15 (72 h), ATP luminescence, HCT-15, 72 h incubation
[19] = 48 h, read-out: EC50 Hep3B (48 h), ATP luminescence, Hep3B, 48 h incubation
[20] = NCI-H460, 72 h, read-out: EC50 NCI-H460 (72 h), ATP luminescence, NCI-H460, 72 h incubation
[21] = 72 h, read-out: EC50 HPAC (72 h), ATP luminescence, HPAC, 72 h incubation
[22] = 786-0, 72 h, read-out: EC50 786-O (72 h), ATP luminescence, 786-O, 72 h incubation
[23] = OVCAR-3, 48 h, read-out: EC50 OVCAR3 (48 h), ATP luminescence, OVCAR3, 48 h incubation
[24] = 72 h, read-out: EC50 Raji (72 h), ATP luminescence, Raji, 72 h incubation
[25] = SW-620, 96 h, read-out: EC50 SW-620 (96 h), ATP luminescence, SW-620, 96 h incubation
[26] = NOMO-1, 48 h, read-out: EC50 Nomo-1 (48 h), ATP luminescence, Nomo-1, 48 h incubation

| Compound | EC50 (HCT-15 [1]; [9]) | EC50 (MDA-MB-231; [10]) | EC50 (HPAC [2]; [11]) | EC50 (BT474; [12]) | EC50 (SKOV3; [13]) | EC50 (786-O [3]; [14]) | EC50 (OVCAR3 [4]; [15]) | EC50 (OVCAR8; [16]) | EC50 (RPMI-8226; [17]) | EC50 (HCT-15 [5]; [18]) | EC50 (Hep3B; [19]) | EC50 (NCI-H460; [20]) | EC50 (HPAC [6]; [21]) | EC50 (786-O [7]; [22]) | EC50 (OVCAR3 [8]; [23]) | EC50 (Raji; [24]) | EC50 (SW-620; [25]) | EC50 (Nomo-1; [26]) | further results |
| --- | --- | --- | --- | --- | --- | --- | --- | --- | --- | --- | --- | --- | --- | --- | --- | --- | --- | --- | --- |
| Nc1ccc(C(=O)Nc2ccc3[nH]c(C(=O)N4C[C@@H](CCl)c5c4cc(O)c4ccccc54)cc3c2)cc1 [CBI, reference compound] | – | – | – | – | – | – | – | – | – | – | – | – | – | – | – | – | – | – | EC50 (HCT-15 [1]; HCT-15, 3H thymidine method, 72 h incubation, read-out: EC50, HCT-15): 0.04 nM; EC50 (MDA-MB-231; MDA-MB-231, 3H thymidine method, 72 h incubation, read-out: EC50, MDA-MB-231): 0.019 nM; EC50 (HPAC [2]; 3H thymidine method, 72 h incubation, read-out: EC50, HPAC): 0.063 nM; EC50 (BT474; BT-474, 3H thymidine method, 72 h incubation, read-out: EC50, BT474): 1.2 nM; EC50 (SKOV3; SK-OV-3, 3H thymidine method, 72 h incubation, read-out: EC50, SKOV3): 0.047 nM; EC50 (786-O [3]; 786-0, 3H thymidine method, 72 h incubation, read-out: EC50, 786-O): 0.035 nM; EC50 (OVCAR3 [4]; OVCAR-3, 3H thymidine method, 72 h incubation, read-out: EC50, OVCAR3): 0.071 nM; EC50 (OVCAR8; OVCAR-8, 3H thymidine method, 72 h incubation, read-out: EC50, OVCAR8): 0.16 nM; EC50 (RPMI-8226; RPMI-8226, 3H thymidine method, 72 h incubation, read-out: EC50, RPMI-8226): 0.12 nM; EC50 (HCT-15 [5]; ATP luminescence, HCT-15, 72 h incubation, read-out: EC50 HCT-15 (72 h)): 3.4 nM; EC50 (Hep3B; ATP luminescence, 48 h incubation, read-out: EC50 Hep3B (48 h)): 2.6 nM; EC50 (NCI-H460; ATP luminescence, NCI-H460, 72 h incubation, read-out: EC50 NCI-H460 (72 h)): 0.64 nM; EC50 (HPAC [6]; ATP luminescence, 72 h incubation, read-out: EC50 HPAC (72 h)): 6 nM; EC50 (786-O [7]; 786-0, ATP luminescence, 786-O, 48 h incubation, read-out: EC50 786-O (48 h)): 1.6 nM; EC50 (OVCAR3 [8]; OVCAR-3, ATP luminescence, OVCAR3, 48 h incubation, read-out: EC50 OVCAR3 (48 h)): 4.1 nM; EC50 (Nomo-1; ATP luminescence, Nomo-1, 72 h incubation, read-out: EC50 Nomo-1 (72 h)): 0.37 nM; EC50 (Raji; ATP luminescence, 72 h incubation, read-out: EC50 Raji (72 h)): 2.1 nM; EC50 (SW-620; ATP luminescence, SW-620, 96 h incubation, read-out: EC50 SW-620 (96 h)): 0.33 nM |
| CC[C@H](C)[C@H](NC(=O)[C@H]1CCCCN1C)C(=O)N(C)[C@H](C[C@@H](OC)c1nc(C(=O)N[C@@H](Cc2ccccc2)C(=O)N[C@@H](C)C(=O)OC)cs1)C(C)C [Compound 24] | 704 nM | 33 nM | > 100 nM | > 100 nM | 68 nM | > 100 nM | 90 nM | > 100 nM | 17 nM | 188 nM | 10 nM | 23 nM | 1.1 nM | 36 nM | 29 nM | 7.9 nM | 10 nM | – | EC50 (Nomo-1; NOMO-1, 72 h, read-out: EC50 Nomo-1 (72 h), ATP luminescence, Nomo-1, 72 h incubation): 4 nM |
| CC[C@H](C)[C@H](NC(=O)[C@H]1CCCCN1C)C(=O)N(C)[C@H](C[C@@H](OC)c1nc(C(=O)N[C@H](CC(=O)OC)Cc2ccccc2)cs1)C(C)C [Compound 25] | 280 nM | 236 nM | 206 nM | 804 nM | 180 nM | 1860 nM | 379 nM | 946 nM | 396 nM | 366 nM | 246 nM | 177 nM | 97 nM | 306 nM | > 3000 nM | 209 nM | 193 nM | 83 nM | – |
| CC[C@H](C)[C@H](NC(=O)[C@H]1CCCCN1C)C(=O)N(C)[C@H](C[C@@H](OC)c1nc(C(=O)N[C@H](CCC(=O)OC)Cc2ccccc2)cs1)C(C)C [Compound 26] | 31 nM | 15 nM | 11 nM | 11 nM | 4.6 nM | 26 nM | 3.2 nM | 201 nM | 7.7 nM | – | 100 nM | 90 nM | 279 nM | 126 nM | – | 46 nM | 48 nM | 3.9 nM | EC50 (HCT-15 [5]; HCT-15, 48 h, read-out: EC50 HCT-15 (48 h), ATP luminescence, HCT-15, 48 h incubation): 113 nM; EC50 (OVCAR3 [8]; OVCAR-3, 72 h, read-out: EC50 OVCAR3 (72 h), ATP luminescence, OVCAR3, 72 h incubation): 49 nM |
